Measurements published in the NIST ThermoML archive (doi:10.1016/j.jct.2012.09.012).
Numbers after ± are expanded uncertainties.

Test: xn = mol fraction of the nth substance listed
Settings: Liquid, Vibrating tube method

CC1=CC[C@H]2C[C@@H]1C2(C)C [(S)-2-pinene] + C=C1CCC2CC1C2(C)C
mass density [kg/m3]
Settings	x1 = 0.1044	x1 = 0.1926	x1 = 0.3036	x1 = 0.3949	x1 = 0.502	x1 = 0.6052	x1 = 0.7022	x1 = 0.7983	x1 = 0.9028	x1 = 1
283.15 K, 20000 kPa	890.1 ± 1.1	889 ± 1.1	887.9 ± 1.1	886.9 ± 1.1	885.7 ± 1.1	884.7 ± 1.1	883.4 ± 1.2	882.3 ± 1.2	881.1 ± 1.2	880 ± 1.2
283.15 K, 25000 kPa	893.1 ± 1.1	891.9 ± 1.1	890.9 ± 1.1	889.9 ± 1.1	888.7 ± 1.1	887.8 ± 1.1	886.6 ± 1.2	885.4 ± 1.2	884.3 ± 1.2	883.2 ± 1.2
283.15 K, 30000 kPa	896 ± 1.1	894.8 ± 1.1	893.7 ± 1.1	892.9 ± 1.1	891.6 ± 1.1	890.7 ± 1.1	889.3 ± 1.2	888.5 ± 1.2	887.4 ± 1.2	886.3 ± 1.3
283.15 K, 35000 kPa	898.9 ± 1.1	897.7 ± 1.1	896.7 ± 1.1	895.8 ± 1.1	894.7 ± 1.1	893.7 ± 1.2	892.5 ± 1.2	891.6 ± 1.2	890.3 ± 1.2	889.4 ± 1.3
283.15 K, 40000 kPa	901.7 ± 1.1	900.6 ± 1.1	899.4 ± 1.1	898.6 ± 1.1	897.5 ± 1.1	896.6 ± 1.2	895.3 ± 1.2	894.6 ± 1.2	893.5 ± 1.3	892.5 ± 1.3
298.15 K, 20000 kPa	879.6 ± 1.1	878.2 ± 1.1	876.9 ± 1.1	875.8 ± 1.1	874.6 ± 1.1	873.4 ± 1.1	872.3 ± 1.2	871.2 ± 1.2	870 ± 1.2	868.8 ± 1.2
298.15 K, 25000 kPa	882.5 ± 1.1	881.3 ± 1.1	880 ± 1.1	879 ± 1.1	877.8 ± 1.1	876.7 ± 1.1	875.6 ± 1.2	874.5 ± 1.2	873.3 ± 1.2	872.1 ± 1.2
298.15 K, 30000 kPa	885.3 ± 1.1	884.2 ± 1.1	883 ± 1.1	882 ± 1.1	880.8 ± 1.1	879.7 ± 1.1	878.8 ± 1.2	877.6 ± 1.2	876.4 ± 1.2	875.3 ± 1.3
298.15 K, 35000 kPa	888.3 ± 1.1	887.3 ± 1.1	886.1 ± 1.1	885.1 ± 1.1	884 ± 1.1	882.9 ± 1.2	882 ± 1.2	880.8 ± 1.2	879.7 ± 1.2	878.6 ± 1.3
298.15 K, 40000 kPa	891.1 ± 1.1	890.2 ± 1.1	889.1 ± 1.1	888 ± 1.1	887.1 ± 1.1	886 ± 1.2	885.1 ± 1.2	884 ± 1.2	882.9 ± 1.3	881.9 ± 1.3
313.15 K, 20000 kPa	868 ± 1.1	867 ± 1.1	865.9 ± 1.1	864.9 ± 1.1	863.6 ± 1.1	862.6 ± 1.1	861.4 ± 1.2	860.3 ± 1.2	859 ± 1.2	858 ± 1.2
313.15 K, 25000 kPa	871.4 ± 1.1	870.3 ± 1.1	869.2 ± 1.1	868.2 ± 1.1	867 ± 1.1	865.8 ± 1.1	864.7 ± 1.2	863.6 ± 1.2	862.4 ± 1.2	861.3 ± 1.2
313.15 K, 30000 kPa	874.6 ± 1.1	873.5 ± 1.1	872.4 ± 1.1	871.4 ± 1.1	870.2 ± 1.1	869.1 ± 1.2	868 ± 1.2	866.9 ± 1.2	865.7 ± 1.2	864.7 ± 1.3
313.15 K, 35000 kPa	877.8 ± 1.1	876.7 ± 1.1	875.5 ± 1.1	874.6 ± 1.1	873.4 ± 1.1	872.3 ± 1.2	871.2 ± 1.2	870.2 ± 1.2	869.1 ± 1.2	867.9 ± 1.3
313.15 K, 40000 kPa	881.1 ± 1.1	879.9 ± 1.1	878.7 ± 1.1	877.8 ± 1.1	876.6 ± 1.1	875.5 ± 1.2	874.5 ± 1.2	873.5 ± 1.2	872.4 ± 1.3	871.3 ± 1.3
328.15 K, 20000 kPa	857.2 ± 1.1	855.9 ± 1.1	855 ± 1.1	853.7 ± 1.1	852.5 ± 1.1	851.3 ± 1.1	850.2 ± 1.2	849.1 ± 1.2	847.9 ± 1.2	846.7 ± 1.2
328.15 K, 25000 kPa	860.6 ± 1.1	859.5 ± 1.1	858.3 ± 1.1	857.2 ± 1.1	856.1 ± 1.1	854.9 ± 1.1	853.8 ± 1.2	852.7 ± 1.2	851.5 ± 1.2	850.4 ± 1.2
328.15 K, 30000 kPa	864.1 ± 1.1	863.1 ± 1.1	862 ± 1.1	860.8 ± 1.1	859.6 ± 1.1	858.5 ± 1.2	857.4 ± 1.2	856.3 ± 1.2	855.1 ± 1.2	854 ± 1.3
328.15 K, 35000 kPa	867.5 ± 1.1	866.6 ± 1.1	865.4 ± 1.1	864.3 ± 1.1	863.1 ± 1.1	861.9 ± 1.2	860.9 ± 1.2	859.8 ± 1.2	858.6 ± 1.2	857.5 ± 1.3
328.15 K, 40000 kPa	870.8 ± 1.1	870 ± 1.1	868.9 ± 1.1	867.7 ± 1.1	866.6 ± 1.2	865.5 ± 1.2	864.3 ± 1.2	863.4 ± 1.2	862.1 ± 1.3	861.1 ± 1.3
343.15 K, 20000 kPa	846.7 ± 1.1	845.5 ± 1.1	844.3 ± 1.1	843.2 ± 1.1	841.9 ± 1.1	840.7 ± 1.1	839.4 ± 1.2	838.3 ± 1.2	837 ± 1.2	835.9 ± 1.2
343.15 K, 25000 kPa	850.5 ± 1.1	849.3 ± 1.1	848.1 ± 1.1	847 ± 1.1	845.7 ± 1.1	844.6 ± 1.1	843.3 ± 1.2	842.1 ± 1.2	840.9 ± 1.2	839.7 ± 1.2
343.15 K, 30000 kPa	854.2 ± 1.1	853 ± 1.1	851.9 ± 1.1	850.9 ± 1.1	849.6 ± 1.1	848.5 ± 1.2	847.2 ± 1.2	846.2 ± 1.2	844.9 ± 1.2	843.8 ± 1.3
343.15 K, 35000 kPa	857.7 ± 1.1	856.6 ± 1.1	855.5 ± 1.1	854.5 ± 1.1	853.3 ± 1.1	852.2 ± 1.2	851 ± 1	850 ± 1	848.7 ± 1.3	847.7 ± 1.3
343.15 K, 40000 kPa	861.3 ± 1.1	860.2 ± 1.1	859.1 ± 1.1	858.1 ± 1.1	857 ± 1.2	855.9 ± 1.2	854.7 ± 1.2	853.7 ± 1.2	852.4 ± 1.3	851.4 ± 1.3
358.15 K, 20000 kPa	835.9 ± 1.1	834.6 ± 1.1	833.3 ± 1.1	832.2 ± 1.1	831 ± 1.1	829.8 ± 1.1	828.5 ± 1.2	827.3 ± 1.2	826.1 ± 1.2	825 ± 1.2
358.15 K, 25000 kPa	839.8 ± 1.1	838.6 ± 1.1	837.4 ± 1.1	836.3 ± 1.1	835 ± 1.1	833.9 ± 1.1	832.7 ± 1.2	831.5 ± 1.2	830.3 ± 1.2	829.2 ± 1.2
358.15 K, 30000 kPa	843.7 ± 1.1	842.5 ± 1.1	841.3 ± 1.1	840.3 ± 1.1	839 ± 1.1	838 ± 1.2	836.7 ± 1.2	835.6 ± 1.2	834.4 ± 1.2	833.3 ± 1.3
358.15 K, 35000 kPa	847.6 ± 1.1	846.4 ± 1.1	845.2 ± 1.1	844.2 ± 1.1	843 ± 1.2	841.8 ± 1.2	840.7 ± 1.2	839.6 ± 1.2	838.4 ± 1.3	837.4 ± 1.3
358.15 K, 40000 kPa	851.5 ± 1.1	850.4 ± 1.1	849.1 ± 1.1	848.2 ± 1.1	847.1 ± 1.2	846 ± 1.2	844.8 ± 1.2	843.8 ± 1.2	842.6 ± 1.3	841.5 ± 1.3
